Data as given in US7741486B1, “Water-soluble titanium alkoxide material” (Sandia Corporation, priority 2008, dated 2010).

Format: physicochemical
Text: The bidentate nature of the OC6H6N (referred to herein as OPy) group, the steric bulk of the OC6H2(CH2N(CH3)2)3-2,4,6 (referred to herein as TAP) ligand, and the amino functionality of the OC6H2(CH2N(CH3)2)3-2,4,6 ligand combine to effectively limit conventional hydrolysis of the alkoxide while maintaining solubility in aqueous media. Therefore, unlike many other similar compounds, the compound of the present invention is both water soluble and stable in an aqueous solution.
The inhibition of hydrolysis at ligand sites even when the molecule is dispersed in water is attributed to steric constraints imposed by the bidentate pyridine carbinoxide (OPy) and monodentate tri-amino-phenoxide (TAP) groups. It is believed that the amino groups present on the TAP ligand further facilitate water solubilization through H-bonding with the water. The inert character of the molecule to conventional hydrolysis chemistry enables an evaluation of photoexcitation as a means to influence the evolution of intermolecular bond formation.

stability in aqueous solution (resistance to conventional hydrolysis): water-stable
water solubility: water-soluble
SMILES: CN(C)Cc1cc(CN(C)C)c([O][Ti]([O]Cc2ccccn2)([O]Cc2ccccn2)[O]c2c(CN(C)C)cc(CN(C)C)cc2CN(C)C)c(CN(C)C)c1 [(OC6H6N)2Ti(OC6H2(CH2N(CH3)2)3-2,4,6)2]
